From patent US20230257700A1, “FUNCTIONAL HUMAN CORNEAL ENDOTHELIAL CELLS AND APPLICATION THEREOF” (KYOTO PREFECTURAL PUBLIC UNIVERSITY CORPORATION, priority 2020, published 2023)

What was measured:
[1] = test system: cultured human corneal endothelial cells; test: FACS cell surface CD antigens and phase-contrast morphology of cultured HCEC (standard cell ratio); assay type: cell-based
Description: Culture with 0+Y, SB2, EGF, Asc (ascorbic acid) ↓ P1 Culture with +Y, SB2, EGF, Asc ↓ P2 Culture in 4 ways with EGF(−), 0.5 ng/mL, 1 ng/mL, 5 ng/mL (+Y, SB2, Asc) ↓ Passage from each condition in P2 P3 Culture in 4 ways with EGF(−), 0.5 ng/mL, 1 ng/mL, 5 ng/mL (+Y, SB2, Asc) ↓ Passage from each condition in P3 P4 Culture in 4 ways with EGF(−), 0.5 ng/mL, 1 ng/mL, 5 ng/mL (+Y, SB2, Asc) *Trypsin (TrypLE, ThermoFisher) concentration ×10 at the time of detachment, seeding cell number ECD800 (In the above, P indicates the number of passages.)
P0 Culture two eyes collectively in 2 ways with EGF(−), 0.5 ng/mL (+Y, SB2, Asc) ↓ Passage from each condition in P0 P1 Culture in two ways with EGF(−), 0.5 ng/mL (+Y, SB2, Asc) ↓ Passage from each condition in P1 P2 Culture in two ways with EGF(−), 0.5 ng/mL (+Y, SB2, Asc) TrypLE concentration ×10 at the time of detachment, at seeding ECD800
(§1) As to culture conditions, the Y addition timing is examined at P1 and P2 in #190719, and the Y addition timing is examined at P1 in #190802.
(§2) Using P4 of #190719, the culture supernatant was collected at 1 to 5 w to examine the difference in accordance with the presence or absence of the ROCK inhibitor. Donor information was as follows: #190719S/D, AEB-301, OSCN/ODCN, ECD=3448/3289, COD: Bleomycin Lung Toxicity 2/2 ChemoTreatments, D-P=11:28, D-C=8D.
For FACS analysis, 16×10^4 cells (one type of antibody+negative control) were dispensed into Proteosave tubes and the rest were passaged. FACS required 8×10^4 cells per antibody type. Passages were seeded at an Endothelial Cell Density (ECD: cells/mm^2) of 400 (191001 time point) (24-well: 7.6×10^4 cells, 12-well: 15.2×10^4 cells, 6-well: 38×10^4 cells, T-25: 100×10^4 cells).
The FACS was started up, and an antibody solution (hereinafter light-shielded, on ice) was prepared as follows. antigen fluorescent dye Volume (μL)×sample type plus something extra (μL)
The cell suspension was centrifuged at 250×g (1,800 rpm) for 2 minutes at 4° C., the supernatant was removed using P-200, the concentration was adjusted to 4×10^6 cells/mL and suspended in FACS Buffer (+NaN3). When the suspension was less than 30 μL, it was suspended in 30 μL and 20 μL was used for the reaction and 10 μL for NC.
Twenty μL of the antibody solution and 20 μL of the suspension were mixed well by pipetting, and the tube was wrapped in aluminum to shield from light and rotated at 4° C. for 2 hours (up to 4 hours maximum) on a rotator. Centrifugation was performed at 250×g (1,800 rpm) for 2 minutes at 4° C., the supernatant was discarded, followed by washing with 100 μL of FACS Buffer (+NaN3). Centrifugation was performed at 250×g (1,800 rpm) for 2 minutes at 4° C., the supernatant was discarded, followed by suspending in 350 μL of FACS buffer (−NaN3), and transferring through a cell strainer to a 5-mL tube. NCs were suspended in FACS Buffer (−NaN3) to a total of 350 μL of the rest of the initial suspension, and transferred to a 5-mL tube through a cell strainer. During the FACS measurement, the sample was kept light-shielded and on ice, the FACS laser value and target cell range were determined, and a file was created (to follow: Open Book→Open Syringe→Green→Cytometer tab: Laser→Area scaling for HCEC label: FSC 0.5/Blue 0.75/Red 0.80). The NC was set to SIT and allowed to run briefly (Flow rate: set to medium, Acquire data 5 seconds→Remove sample from SIT and put on ice) to check the fluorescence parameter graph and target cell range. […]

[2] = test system: miR34a-5p; test: intracellular miR34a-5p expression by qRT-PCR; assay type: cell-based, human; conditions: with/without EGF, with/without Y27632
Text: (§3) Y27632 was used as a ROCK inhibitor.
(§4) Culture conditions conform to Examples 1 and 2.
(§5) The results of miR184, miR34, miR378, and miR146 gene expression variations in the presence or absence of EGF and in the presence or absence of Y by qRT-PCR are shown in FIGS. 17 and 18.

[3] = test system: cultured human corneal endothelial cells CT09; test: effects of additives, lot CT09 P5 (photographs, FACS, ELISA); assay type: cell-based; conditions: CT09 P5, conditions 1 to 5, Day 34 FACS, PDGF-bb and IL-8 1st to 5th week
Text: (§6) Lot CT09 P5 was used to assay the effects of additives to evaluate the product in a SB2-new culture method. First, using CT09 P4 (remaining cells for FBS lot assay), the culture supernatant was collected the day before the passage (Day 42), and then the CT09 P5 was passaged with ECD400 (181219), followed by culturing in Nancy medium (FBS #1652794, containing ascorbic acid) under conditions 1 to 5 shown in FIG. 23 (2 wells for each 6-well plate). From the 1st week to the 5th week, the culture supernatant was collected, one well was subjected to FACS measurement on Day 34 (190122), and the culture supernatant was measured for IL-8 and PDGF-bb by ELISA.

[4] = test system: miR184; test: intracellular miR184 expression by qRT-PCR; assay type: cell-based, human; conditions: with/without EGF, with/without Y27632
Text: as §3, §4, §5

[5] = test system: IL-8; test: ELISA IL-8 in culture supernatant; assay type: cell-based, human
Text: as §6, §1, §2

[6] = test system: human corneal endothelial cells (donor AEM-510); test: adhesion enhancement at P0 with or without Y addition; assay type: cell-based
Description: Next, ROCK inhibitors were tested for adhesion enhancement. In order to investigate whether the enhancement of adhesion by the ROCK inhibitor is related to standard cell manufacture, cells cultured under the following conditions were compared and verified at P0 with or without Y addition.
AEM-510 (person), ECD ODCN: 3058, and OSCN: 3058 were used, which were stored at 4° C. on January 30th, corneal treatment was performed on January 31st at 10:00, OD collagenase treatment was started at 10:45, and OS collagenase treatment was started at 11:05. Thereafter, seeding was started at 14:45 and cultured with Y−, A (ascorbic acid)+for OD and Y+, A+ for OS. At 10:00 on February 4, the medium was replaced, and both eyes: Y+, A+ were photographed (phase contrast ×4, ×10).

[7] = test system: PDGF-bb; test: ELISA PDGF-bb in culture supernatant; assay type: cell-based, human; conditions: for PDGF-bb in culture supernatant (weekly): #190719 P1 and P2, #190318
Text: as §6, §1, §2

[8] = test system: IL-6, IL-8 and MIP-1b; test: cytokine measurement (BioPlex) in culture supernatant; assay type: cell-based, human; conditions: #190318
[9] = test system: cultured endothelial cells; test: measurement of metabolites in culture supernatant (CE-TOFMS, CE-MS/MS); assay type: cell-based, human
Description: In this Example, differences between the metabolite properties of functional human corneal endothelial cells and the metabolite properties of non-intended cells were confirmed.
For measurement of metabolites in culture supernatant (CS), an 80 μL Milli-Q (Merck1 KGaA, Darmstadt, Germany) containing 20 μL of CS and internal standard solution 1 (H3304-1002; Human Metabolome Technologies, Inc., Yamagata, Japan), was thoroughly mixed. Cationic compounds were measured by CE time-of-flight mass spectrometry (CE-TOFMS) in positive mode, and anionic compounds were measured by CE tandem MS (CE-MS/MS) in positive and negative modes. Hierarchical cluster analysis (HCA) was performed using the proprietary software “PeakStat”. Differences in values were analyzed statistically using Student's t-test or one-way analysis of variance (ANOVA) with Bonferroni's post hoc test (GraphPadPrism 6.0, GraphPad software). A p-value of <0.05 was considered statistically significant.
The effect of adding a ROCK inhibitor was determined according to Example 3.

[10] = test system: mitochondrial respiration (OXPHOS) of HCEC; test: mitochondrial respiratory capacity of cHCEC; assay type: cell-based, human; conditions: HCEC passages 2-5
Text: As used herein, “mitochondria dependent oxidative phosphorylation” is also called “mitochondria OXPHOS” and refers to a reaction of oxidative phosphorylation that depends on respiratory activity. As to the reaction associated with “mitochondria OXPHOS”, a extracellular flux analyzer, which analyzes the state of intracellular metabolism, can measure the oxygen consumption rate (OCR), which is an index of OXPHOS activity, the extracellular acidification rate (ECAR), which is an index of glycolytic activity.
Corneal endothelial cells (HCEC) were obtained from donor corneas provided by SightLife (Seattle, Wash., USA), and the HCEC were cultured according to a published protocol (Toda M, Ueno M, et al. Invest Ophthalmol Vis Sci. 2017; 58:2011) with some modifications. HCEC of passages 2-5 were used for all experiments. SPs containing CST were passaged at low cell density. The SPs of cHCEC were identified by cell surface markers (CD24, 44, 105, 166) using phase-contrast microscopy images and flow cytometry.

[11] = #190719 P4, ROCK inhibitor added at the start of the culture for 3 days
[12] = #190719 P1 and P2, ROCK inhibitor added 10 days after the start of culture

C[C@@H](N)[C@H]1CC[C@H](C(=O)Nc2ccncc2)CC1.Cl.Cl.O (relative stereo) [Y27632, (R)-(+)-trans-(4-pyridyl)-4-(1-aminoethyl)-cyclohexanecarboxamide dehydrochloride monohydrate]
mature standard cells by FACS [1, 11]: no mature standard cells were detected by FACS | ratio of standard cells (FACS) ([1]; ROCK inhibitor added on the 10th day after the start of culture, #190719, #190802, #190318): higher ratio of standard cells in all of the three experiments | miR34a-5p expression level [2]: increases with the addition of the ROCK inhibitor | desirable additive condition (overall effects of the additives) [3]: addition of Y from Day 10 | miR184 expression level [4]: increases with the addition of the ROCK inhibitor | IL-8 in culture supernatant [5, 12]: lowest from differentiation to the maturation stage | IL-8 in culture supernatant [5, 11]: higher than the standard | adhesion to the incubator after seeding ([6]; P0, Y+ vs Y−): promoted the adhesion to the incubator after seeding the cells | difference between cultures on the 14th day ([6]; Y27632 added for the first time after the 4th day vs from seeding): no difference was observed on the 14th day of culture | PDGF-bb in culture supernatant (weekly) [7]: high PDGF levels and slightly low levels in the P1 growth phase | PDGF-bb in culture supernatant (for each item) [7, 12]: increased from differentiation to maturation | PDGF-bb in culture supernatant [7, 11]: at a low level and does not satisfy the standard values | PDGF-bb in culture supernatant ([7]; #190802): increased dependently on differentiation and induction by a ROCK inhibitor

NC(=O)c1ccc(-c2nc(-c3ccc4c(c3)OCO4)c(-c3ccccn3)[nH]2)cc1 [SB4]
desirable additive condition (overall effects of the additives) [3]: addition of SB4

C[S+]([O-])c1ccc(-c2nc(-c3ccncc3)c(-c3ccc(F)cc3)[nH]2)cc1 (stereo not drawn) [SB203580]
IL-6, IL-8 and MIP-1b in culture supernatant (BioPlex) [8]: dependent on the p38 MAPK inhibitor | desirable additive condition (overall effects of the additives) [3]: no addition of SB2 or the addition thereof only at the final stage of culture | IL-8 in culture supernatant (weekly) ([5]; #190318): varies almost depending on the presence or absence of SB2 | IL-8 in culture supernatant ([5]; #190802): decreased dependently on a p38 MAPK inhibitor | PDGF-bb in culture supernatant (for each item) ([7]; #190318, SB2 not added): high PDGF levels at 3 w | PDGF-bb in culture supernatant (weekly) [7]: little relation to the presence or absence of SB203580

EGF: epidermal growth factor, a type of cell growth factor
Lactic Acid and L/P (lactic acid/pyruvic acid) ratio; anaerobic glycolytic activity [9]: non-intended cell profile with high anaerobic glycolytic activity due to the addition of EGF | metabolite profile of cultured endothelial cells ([9]; EGF added): showed a non-intended cell profile by adding EGF | amount of branched chain amino acids (Ile, Leu) produced ([9]; amount of EGF added varied): decreased when the amount of EGF added was reduced | ratio of corneal endothelial cells of the present disclosure (FACS) ([1]; EGF (−) or 0.5 ng/mL from primary culture, P0 to P2, donor #214): increases when EGF is not added | cell shape under microscopy and cell surface CD antigen trait ([1]; EGF (−), 0.5, 1, 5 ng/mL, passages P2 to P4, donor #202): no addition of EGF was desirable at any passage from P2 to P4 | standard cell ratio ([1]; EGF addition, HCEC passages 2-5): lowers the standard cell ratio | miR34a-5p expression level [2]: increases with no EGF addition than with EGF addition | desirable additive condition (overall effects of the additives) [3]: no addition of EGF | miR184 expression level [4]: increases with no EGF addition than with EGF addition | mitochondrial respiratory capacity and oxidative phosphorylation (OXPHOS) [10]: reduces mitochondrial respiratory capacity and oxidative phosphorylation (OXPHOS)
